Results reported in patent US7973012B2, “C-phenyl glycitol compound” (Taisho Pharmaceutical Co., Ltd, priority 2006, dated 2011).

Experiments:
human SGLT1 = biological target: T1, human SGLT1 (Homo sapiens, UniProt P13866); assay: Inhibition test of sodium-dependent sugar uptake in CHO-k1 cells stably expressing human SGLT1; type: cell-based; details: for IC50: CHO-k1 cells expressing human SGLT1, [14C]methyl α-D-glucopyranoside uptake, 37° C., 30 minutes; for SGLT1 % inhibition at 100 nM: sugar uptake inhibition rate at 100 nM test compound vs control group
T1 construct: expressed in transfected cells; host or cells: CHO-k1
T1 sequence (P13866 1-664): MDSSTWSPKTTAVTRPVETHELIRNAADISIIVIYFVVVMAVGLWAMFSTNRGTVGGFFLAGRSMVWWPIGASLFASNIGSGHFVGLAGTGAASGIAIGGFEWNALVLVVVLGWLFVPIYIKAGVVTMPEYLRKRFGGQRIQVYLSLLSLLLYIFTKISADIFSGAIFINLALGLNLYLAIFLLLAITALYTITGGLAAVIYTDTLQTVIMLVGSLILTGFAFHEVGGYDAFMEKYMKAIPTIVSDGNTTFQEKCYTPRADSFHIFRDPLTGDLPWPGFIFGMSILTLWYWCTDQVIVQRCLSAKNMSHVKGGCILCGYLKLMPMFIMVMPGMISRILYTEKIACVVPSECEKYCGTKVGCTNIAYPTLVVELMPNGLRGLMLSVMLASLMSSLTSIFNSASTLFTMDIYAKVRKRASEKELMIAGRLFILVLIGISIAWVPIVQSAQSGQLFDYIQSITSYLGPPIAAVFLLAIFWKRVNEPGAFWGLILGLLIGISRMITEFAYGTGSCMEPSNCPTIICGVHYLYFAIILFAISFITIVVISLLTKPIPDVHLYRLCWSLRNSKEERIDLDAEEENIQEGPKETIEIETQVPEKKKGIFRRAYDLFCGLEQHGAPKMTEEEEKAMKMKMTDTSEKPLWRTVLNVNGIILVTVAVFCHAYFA
Procedure: (§1) An SGLT1 sequence (NM_000343) was reverse-transcripted from human small intestinal mRNA, then amplified, and then introduced into pCMV-tag5A from Stratagene Corporation. An SGLT2 sequence (NM_003041) was prepared from human nephric mRNA as with the above method, and then introduced into pcDNA3.1+hygro from Invitrogen Corporation. Each cloned sequence was confirmed to be identical with the reported sequence.
(§2) The human SGLT1 and human SGLT2 expression vectors were transfected into CHO-k1 cells by using Lipofectamine 2000 from Invitrogen Corporation. The SGLT expression cells were incubated in the presence of Geneticin (SGLT1) or Hygromycin B (SGLT2) at a 500 μg/mL concentration to select resistant strains, and specific activity of sugar uptake was obtained as an indicator by the following system.
(§3) Cells stably expressing human SGLT1 and human SGLT2 were used for the inhibition test of sodium-dependent glucose uptake.
(§4) The cells were incubated in a pretreatment buffer A (200 μL for SGLT1, and 2 mL for SGLT2) for 20 minutes. The pretreatment buffer was removed and an uptake buffer B (75 μL for SGLT1, and 200 μL for SGLT2) containing a test compound was added to conduct an uptake reaction at 37° C. for 30 minutes (SGLT1) or an hour (SGLT2). After the reaction, the cells were washed with a washing buffer C twice (200 μL for SGLT1, and 2 mL for SGLT2), and then dissolved in a 0.2 M solution of NaOH (75 μL for SGLT1, and 400 μL for SGLT2). After a liquid scintilater was added thereto and mixed sufficiently, radioactivity was measured with microBETA (SGLT1) or a liquid scintillation counter from Beckman Coulter, Inc (SGLT2). As a control group, an uptake buffer containing no test compound was prepared. In addition, as the basic uptake buffer, an uptake buffer B containing choline chloride instead of NaCl was prepared. • A pretreatment buffer A: 140 mM choline chloride, 2 mM KCl, 1 mM CaCl2, 1 mM MgCl2, 10 mM HEPES/5 mM Tris, pH 7.4. • An uptake buffer B: 1 mM of methyl α-D-glucopyranoside containing [^14C]methyl α-D-glucopyranoside, 140 mM NaCl, 2 mM KCl, 1 mM CaCl2, 1 mM MgCl2, 10 mM HEPES/5 mM Tris, pH 7.4. • A washing buffer C: 10 mM methyl α-D-glucopyranoside, 140 mM choline chloride, 2 mM KCl, 1 mM CaCl2, 1 mM MgCl2, 10 mM HEPES/5 mM Tris, pH 7.4.
(§5) In order to obtain IC50 values, test compounds having adequate 6 concentrations were used and the test compound concentrations (IC50 values) at which sugar uptake is inhibited by 50% in comparison with the amount of sugar uptake (100%) of the control group were calculated.
(§6) In addition, the sugar uptake inhibition rates at 100 nM concentration of the test compound in comparison with the control group are shown in Table 7.

human SGLT2 = biological target: T2, human SGLT2 (Homo sapiens, UniProt P31639); assay: Inhibition test of sodium-dependent sugar uptake in CHO-k1 cells stably expressing human SGLT2; type: cell-based; details: for IC50: CHO-k1 cells expressing human SGLT2, [14C]methyl α-D-glucopyranoside uptake, 37° C., an hour; for SGLT2 % inhibition at 100 nM: sugar uptake inhibition rate at 100 nM test compound vs control group
T2 construct: expressed in transfected cells; host or cells: CHO-k1
T2 sequence (P31639 1-672): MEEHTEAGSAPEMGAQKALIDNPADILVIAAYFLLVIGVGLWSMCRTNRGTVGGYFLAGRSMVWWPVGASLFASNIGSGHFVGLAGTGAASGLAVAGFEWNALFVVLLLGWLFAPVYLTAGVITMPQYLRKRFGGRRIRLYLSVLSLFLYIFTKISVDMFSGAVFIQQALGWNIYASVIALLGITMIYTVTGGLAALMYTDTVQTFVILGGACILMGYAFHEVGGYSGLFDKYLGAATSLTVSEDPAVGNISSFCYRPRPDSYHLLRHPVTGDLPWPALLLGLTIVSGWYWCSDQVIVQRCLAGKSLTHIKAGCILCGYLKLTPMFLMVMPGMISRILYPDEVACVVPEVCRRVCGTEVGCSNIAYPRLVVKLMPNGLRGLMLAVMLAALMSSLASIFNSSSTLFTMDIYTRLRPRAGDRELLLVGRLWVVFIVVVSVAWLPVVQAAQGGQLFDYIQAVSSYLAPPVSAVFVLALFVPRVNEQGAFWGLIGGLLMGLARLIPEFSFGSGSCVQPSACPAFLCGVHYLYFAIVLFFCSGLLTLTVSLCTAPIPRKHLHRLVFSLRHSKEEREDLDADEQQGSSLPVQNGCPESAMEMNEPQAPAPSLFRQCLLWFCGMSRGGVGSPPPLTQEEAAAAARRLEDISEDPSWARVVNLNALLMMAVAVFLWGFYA
Procedure: as §1, §2, §3, §4, §5, §6

Compound | IC50 (human SGLT1) | IC50 (human SGLT2) | SGLT1 % inhibition at 100 nM (human SGLT1) | SGLT2 % inhibition at 100 nM (human SGLT2)
Cc1cc(O)c([C@@H]2O[C@H](CO)[C@@H](O)[C@H](O)[C@H]2O)cc1Cc1ccc(CCNC(=O)N[C@H](CO)Cc2ccccc2)cc1 [Compound 48] |  |  | 73% | 87%
COc1ccc(CCN(C)C(=O)NCCc2ccc(Cc3cc([C@@H]4O[C@H](CO)[C@@H](O)[C@H](O)[C@H]4O)c(O)cc3C)cc2)cc1OC [Compound 57] |  |  | 68% | 51%
Cc1cc(O)c([C@@H]2O[C@H](CO)[C@@H](O)[C@H](O)[C@H]2O)cc1Cc1ccc(CCNC(=O)NC2C3CC4CC(C3)CC2C4)cc1 (stereo partly drawn) [Compound 123] |  |  | 78% | 87%
Cc1cc(O)c([C@@H]2O[C@H](CO)[C@@H](O)[C@H](O)[C@H]2O)cc1Cc1ccc(CCNC(=O)N[C@@H](Cc2ccccc2)C(N)=O)cc1 [Compound 40] |  |  | 79% | 89%
Cc1cc(O)c([C@@H]2O[C@H](CO)[C@@H](O)[C@H](O)[C@H]2O)cc1Cc1ccc(CCNC(=O)NCCN2CCCCC2)cc1 [Compound 67] |  |  | 61% | 82%
Cc1cc(O)c([C@@H]2O[C@H](CO)[C@@H](O)[C@H](O)[C@H]2O)cc1Cc1ccc(CCNC(=O)NC2CN3CCC2CC3)cc1 (stereo partly drawn) [Compound 34] | 49 nM | 10 nM |  | 
O=C(NCCc1ccc(Cc2cc([C@@H]3O[C@H](CO)[C@@H](O)[C@H](O)[C@H]3O)ccc2Cl)cc1)NC(CO)(CO)CO [Compound 17, (1S)-1,5-anhydro-1-[4-chloro-3-[4-[2-[[[2-hydroxy-1,1-bis(hydroxymethyl)ethyl]aminocarbonyl]amino]ethyl]benzyl]phenyl]-D-glucitol] | 79 nM | 25 nM |  | 
Cc1cc(O)c([C@@H]2O[C@H](CO)[C@@H](O)[C@H](O)[C@H]2O)cc1Cc1ccc(CCNC(=O)NC2CCCc3ccccc32)cc1 (stereo partly drawn) [Compound 35] | 83 nM | 34 nM |  | 
COC(=O)CNC(=O)NCCc1ccc(Cc2cc([C@@H]3O[C@H](CO)[C@@H](O)[C@H](O)[C@H]3O)c(O)cc2C)cc1 [Compound 21] | 75 nM | 34 nM |  | 
CCCNC(=O)NCCc1ccc(Cc2cc([C@@H]3O[C@H](CO)[C@@H](O)[C@H](O)[C@H]3O)c(O)cc2C)cc1 [Compound 56] |  |  | 68% | 77%
Cc1cc(O)c([C@@H]2O[C@H](CO)[C@@H](O)[C@H](O)[C@H]2O)cc1Cc1ccc(CCNC(=O)N(CC(C)C)CC(C)C)cc1 [Compound 59] |  |  | 67% | 86%
Cc1cc(O)c(C2OC(CO)C(O)C(O)C2O)cc1Cc1ccc(CCNC(=O)NC2CCN(Cc3ccccc3)C2)cc1 (mixture of isomers) [Compound 132] |  |  | 90% | 90%
CCC(CO)NC(=O)NCCc1ccc(Cc2cc([C@@H]3O[C@H](CO)[C@@H](O)[C@H](O)[C@H]3O)c(O)cc2C)cc1 (stereo partly drawn) [Compound 50] |  |  | 71% | 77%
Cc1cc(O)c([C@@H]2O[C@H](CO)[C@@H](O)[C@H](O)[C@H]2O)cc1Cc1ccc(CCNC(=O)NCC2CCCCC2)cc1 [Compound 28] | 64 nM | 18 nM |  | 

The next lines start with the values.

IC50 (human SGLT1) | IC50 (human SGLT2) | SGLT1 % inhibition at 100 nM (human SGLT1) | SGLT2 % inhibition at 100 nM (human SGLT2) | Compound
12 nM | 11 nM |  |  | Cc1cc(O)c([C@@H]2O[C@H](CO)[C@@H](O)[C@H](O)[C@H]2O)cc1Cc1ccc(CCNC(=O)NC2CCN(Cc3ccccc3)CC2)cc1 [Compound 33]
 |  | 73% | 89% | CSCC[C@@H](CO)NC(=O)NCCc1ccc(Cc2cc([C@@H]3O[C@H](CO)[C@@H](O)[C@H](O)[C@H]3O)c(O)cc2C)cc1 [Compound 47]
19 nM | 19 nM |  |  | Cc1cc(O)c([C@@H]2O[C@H](CO)[C@@H](O)[C@H](O)[C@H]2O)cc1Cc1ccc(CCNC(=O)NC2(CO)CCCC2)cc1 [Compound 23]
94 nM | 34 nM |  |  | Cc1cc(O)c([C@@H]2O[C@H](CO)[C@@H](O)[C@H](O)[C@H]2O)cc1Cc1ccc(CCNC(=O)N2CCC(C)CC2)cc1 [Compound 36]
245 nM | 44 nM |  |  | COC(=O)CCNC(=O)NCCc1ccc(Cc2cc([C@@H]3O[C@H](CO)[C@@H](O)[C@H](O)[C@H]3O)c(O)cc2C)cc1 [Compound 32]
 |  | 60% | 83% | Cc1cc(O)c([C@@H]2O[C@H](CO)[C@@H](O)[C@H](O)[C@H]2O)cc1Cc1ccc(CCNC(=O)NCc2ccccc2)cc1 [Compound 68]
37 nM | 12 nM |  |  | COC(=O)[C@H](Cc1ccccc1)NC(=O)NCCc1ccc(Cc2cc([C@@H]3O[C@H](CO)[C@@H](O)[C@H](O)[C@H]3O)c(O)cc2C)cc1 [Compound 22]
 |  | 71% | 79% | Cc1cc(O)c(C2OC(CO)C(O)C(O)C2O)cc1Cc1ccc(CCNC(=O)NC2CC3CCC2C3)cc1 (mixture of isomers) [Compound 124]
111 nM | 13 nM |  |  | Cc1cc(O)c([C@@H]2O[C@H](CO)[C@@H](O)[C@H](O)[C@H]2O)cc1Cc1ccc(CCNC(=O)NCCN2CCCC2)cc1 [Compound 30]
 |  | 79% | 73% | COC(=O)C(NC(=O)NCCc1ccc(Cc2cc(C3OC(CO)C(O)C(O)C3O)c(O)cc2C)cc1)C(C)(C)C (stereo not drawn) [Compound 54]
 |  | 65% | 79% | Cc1cc(O)c([C@@H]2O[C@H](CO)[C@@H](O)[C@H](O)[C@H]2O)cc1Cc1ccc(CCNC(=O)NCCCCc2ccccc2)cc1 [Compound 62]
 |  | 68% | 90% | Cc1cc(O)c([C@@H]2O[C@H](CO)[C@@H](O)[C@H](O)[C@H]2O)cc1Cc1ccc(CCNC(=O)NC2CCCC2)cc1 [Compound 125]
 |  | 66% | 80% | Cc1cc(O)c(C2OC(CO)C(O)C(O)C2O)cc1Cc1ccc(CCNC(=O)N2CCC3CCCCC3C2)cc1 (mixture of isomers) [Compound 143]
